Results reported in patent US11987588B2, “Modulators of the beta-3 adrenergic receptor useful for the treatment or prevention of heart failure and disorders related thereto” (Arena Pharmaceuticals, Inc., priority 2017, dated 2024).

What follows are molecules tested against Beta-3 Adrenergic Receptor (Homo sapiens (Human), UniProt P13945) (assay: Homogeneous Time-Resolved Fluorescence (HTRF) cAMP antagonist assay, IC50 determination). Details: CHO-K1 cells stably expressing recombinant receptor, isoproterenol at EC90.
Sequence of Beta-3 Adrenergic Receptor (P13945 whole entry, species assumed): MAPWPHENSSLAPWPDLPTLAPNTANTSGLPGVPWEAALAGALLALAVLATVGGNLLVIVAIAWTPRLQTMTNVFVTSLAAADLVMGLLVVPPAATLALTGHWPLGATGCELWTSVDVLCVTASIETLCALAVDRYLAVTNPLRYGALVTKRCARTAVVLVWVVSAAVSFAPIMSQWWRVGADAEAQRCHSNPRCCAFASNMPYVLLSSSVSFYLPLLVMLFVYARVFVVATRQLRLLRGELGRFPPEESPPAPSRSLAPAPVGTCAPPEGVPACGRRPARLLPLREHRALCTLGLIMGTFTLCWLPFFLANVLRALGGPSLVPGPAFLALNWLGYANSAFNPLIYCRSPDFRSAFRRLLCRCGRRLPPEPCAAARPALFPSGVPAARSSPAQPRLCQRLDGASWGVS
Assay type: cell-based
Procedure, shortened: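 Antagonist mode: isoproterenol at its predetermined EC90 added after compound to recombinant CHO-K1 cells in IBMX-containing PBS, 1 h, room temperature. Compounds tested as 5-fold, 10-point dilutions, top final typically 10 or 100 μM. HTRF signal converted to cAMP via standard curve, giving IC50.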

| IC50 [nM] | SMILES |
| --- | --- |
| 18.6 | CNS(=O)(=O)c1cccc(OC[C@@H](O)CNC2COC3(CCN(S(=O)(=O)c4cncc(Br)c4)CC3)C2)c1 (stereo partly drawn) [Compound 337, 3-((2S)-3-(8-(5-bromopyridin-3-ylsulfonyl)-1-oxa-8-azaspiro[4.5]decan-3-ylamino)-2-hydroxypropoxy)-N-methylbenzenesulfonamide] |
| 352 | CNS(=O)(=O)c1cccc(OC[C@@H](O)CNC2COC3(CCN(c4cc(Cl)ccn4)CC3)C2)c1 (stereo partly drawn) [Compound 433, 3-((2S)-3-(8-(4-chloropyridin-2-yl)-1-oxa-8-azaspiro[4.5]decan-3-ylamino)-2-hydroxypropoxy)-N-methylbenzenesulfonamide] |
| 15.6 | Cc1ccc2c(O)c(S(=O)(=O)N3CCC4(CC3)C[C@@H](NC[C@H](O)COc3cccc(S(N)(=O)=O)c3)CO4)cnc2c1 [Compound 542, 3-((S)-2-hydroxy-3-((R)-8-(4-hydroxy-7-methylquinolin-3-ylsulfonyl)-1-oxa-8-azaspiro[4.5]decan-3-ylamino)propoxy)benzenesulfonamide] |
| 52.3 | CNS(=O)(=O)c1cccc(OC[C@@H](O)CN[C@H]2COC3(CCN(S(=O)(=O)c4cnc5[nH]c(=O)[nH]c5c4)CC3)C2)c1 [Compound 477, 3-((S)-2-hydroxy-3-((R)-8-(2-oxo-2,3-dihydro-1H-imidazo[4,5-b]pyridin-6-ylsulfonyl)-1-oxa-8-azaspiro[4.5]decan-3-ylamino)propoxy)-N-methylbenzenesulfonamide] |
| 49.2 | CN(C1CC1)S(=O)(=O)c1cccc(OC[C@@H](O)CNC2COC3(CCN(S(=O)(=O)c4ccc5ccccc5c4)CC3)C2)c1 (stereo partly drawn) [Compound 90, N-cyclopropyl-3-((2S)-2-hydroxy-3-(8-(naphthalen-2-ylsulfonyl)-1-oxa-8-azaspiro[4.5]decan-3-ylamino)propoxy)-N-methylbenzenesulfonamide] |
| 83.7 | CNS(=O)(=O)c1cccc(OC[C@@H](O)CNC2COC3(CCN(S(=O)(=O)c4cccc(Oc5ccc(C(F)(F)F)cc5)c4)CC3)C2)c1 (stereo partly drawn) [Compound 161, 3-((2S)-2-hydroxy-3-(8-(3-(4-(trifluoromethyl)phenoxy)phenylsulfonyl)-1-oxa-8-azaspiro[4.5]decan-3-ylamino)propoxy)-N-methylbenzenesulfonamide] |
| 44.9 | CNS(=O)(=O)c1cccc(OC[C@@H](O)CNC2COC3(CCN(S(=O)(=O)c4cccc(-c5cn(C)nc5C(F)(F)F)c4)CC3)C2)c1 (stereo partly drawn) [Compound 62, 3-((2S)-2-hydroxy-3-(8-(3-(1-methyl-3-(trifluoromethyl)-1H-pyrazol-4-yl)phenylsulfonyl)-1-oxa-8-azaspiro[4.5]decan-3-ylamino)propoxy)-N-methylbenzenesulfonamide] |
| 97.6 | CNS(=O)(=O)c1cccc(OC[C@@H](O)CNC2COC3(CCN(S(=O)(=O)c4cn(C)cn4)CC3)C2)c1 (stereo partly drawn) [Compound 194, 3-((2S)-2-hydroxy-3-(8-(1-methyl-1H-imidazol-4-ylsulfonyl)-1-oxa-8-azaspiro[4.5]decan-3-ylamino)propoxy)-N-methylbenzenesulfonamide] |
| 41.8 | CNS(=O)(=O)c1cccc(OC[C@@H](O)CNC2COC3(CCN(S(=O)(=O)c4cccc(-c5ccc(OCCCN(C)C)nc5)c4)CC3)C2)c1 (stereo partly drawn) [Compound 372, 3-((2S)-3-(8-(3-(6-(3-(dimethylamino)propoxy)pyridin-3-yl)phenylsulfonyl)-1-oxa-8-azaspiro[4.5]decan-3-ylamino)-2-hydroxypropoxy)-N-methylbenzenesulfonamide] |
| 11.4 | CNS(=O)(=O)c1cccc(OC[C@@H](O)CNC2COC3(CCN(S(=O)(=O)c4cccc5nsnc45)CC3)C2)c1 (stereo partly drawn) [Compound 128, 3-((2S)-3-(8-(benzo[c][1,2,5]thiadiazol-4-ylsulfonyl)-1-oxa-8-azaspiro[4.5]decan-3-ylamino)-2-hydroxypropoxy)-N-methylbenzenesulfonamide] |
| 24.4 | CNS(=O)(=O)c1cccc(OC[C@@H](O)CNC2COC3(CCN(S(=O)(=O)c4cc(C)cc(-c5ccc(CN)cc5)c4)CC3)C2)c1 (stereo partly drawn) [Compound 373, 3-((2S)-3-(8-(4′-(aminomethyl)-5-methylbiphenyl-3-ylsulfonyl)-1-oxa-8-azaspiro[4.5]decan-3-ylamino)-2-hydroxypropoxy)-N-methylbenzenesulfonamide] |
| 20.7 | CNS(=O)(=O)c1cccc(OC[C@@H](O)CNC2COC3(CCN(S(=O)(=O)c4cc(-c5ccc(CN)cc5)ccc4C)CC3)C2)c1 (stereo partly drawn) [Compound 365, 3-((2S)-3-(8-(4′-(aminomethyl)-4-methylbiphenyl-3-ylsulfonyl)-1-oxa-8-azaspiro[4.5]decan-3-ylamino)-2-hydroxypropoxy)-N-methylbenzenesulfonamide] |
| 14.5 | CNS(=O)(=O)c1cccc(OC[C@@H](O)CNC2COC3(CCN(S(=O)(=O)c4cccc(-c5c(C)noc5C)c4)CC3)C2)c1 (stereo partly drawn) [Compound 59, 3-((2S)-3-(8-(3-(3,5-dimethylisoxazol-4-yl)phenylsulfonyl)-1-oxa-8-azaspiro[4.5]decan-3-ylamino)-2-hydroxypropoxy)-N-methylbenzenesulfonamide] |
| 427 | CNS(=O)(=O)c1cccc(OC[C@@H](O)CN[C@H]2COC3(CCN(c4nccc(N)n4)CC3)C2)c1 [Compound 569, 3-((S)-3-((R)-8-(4-aminopyrimidin-2-yl)-1-oxa-8-azaspiro[4.5]decan-3-ylamino)-2-hydroxypropoxy)-N-methylbenzenesulfonamide] |
| 19.5 | CNS(=O)(=O)c1cccc(OC[C@@H](O)CN[C@@H]2COC3(CCN(S(=O)(=O)c4cc(-c5ccc(CN)cc5)ccc4OC(F)(F)F)CC3)C2)c1 [Compound 415, 3-((S)-3-((S)-8-(4′-(aminomethyl)-4-(trifluoromethoxy)biphenyl-3-ylsulfonyl)-1-oxa-8-azaspiro[4.5]decan-3-ylamino)-2-hydroxypropoxy)-N-methylbenzenesulfonamide] |
| 31.1 | CNS(=O)(=O)c1cccc(OC[C@@H](O)CNC2COC3(CCN(S(=O)(=O)c4ccc(N5CCOCC5)nc4)CC3)C2)c1 (stereo partly drawn) [Compound 406, 3-((2S)-2-hydroxy-3-(8-(6-morpholinopyridin-3-ylsulfonyl)-1-oxa-8-azaspiro[4.5]decan-3-ylamino)propoxy)-N-methylbenzenesulfonamide] |
| 17.6 | CNS(=O)(=O)c1cccc(OC[C@@H](O)CNC2COC3(CCN(S(=O)(=O)c4ccccc4C(F)(F)F)CC3)C2)c1 (stereo partly drawn) [Compound 33, 3-((2S)-2-hydroxy-3-(8-(2-(trifluoromethyl)phenylsulfonyl)-1-oxa-8-azaspiro[4.5]decan-3-ylamino)propoxy)-N-methylbenzenesulfonamide] |
| 37 | CNS(=O)(=O)c1cccc(OC[C@@H](O)CNC2COC3(CCN(S(=O)(=O)c4ccc5cn[nH]c5c4)CC3)C2)c1 (stereo partly drawn) [Compound 328, 3-((2S)-3-(8-(1H-indazol-6-ylsulfonyl)-1-oxa-8-azaspiro[4.5]decan-3-ylamino)-2-hydroxypropoxy)-N-methylbenzenesulfonamide] |
| 6.95 | CNS(=O)(=O)c1cccc(OC[C@@H](O)CN[C@H]2COC3(CCN(S(=O)(=O)c4cnc5[nH]cc(C(F)(F)F)c5c4)CC3)C2)c1 [Compound 509, 3-((S)-2-hydroxy-3-((R)-8-(3-(trifluoromethyl)-1H-pyrrolo[2,3-b]pyridin-5-ylsulfonyl)-1-oxa-8-azaspiro[4.5]decan-3-ylamino)propoxy)-N-methylbenzenesulfonamide] |
| 102 | CNS(=O)(=O)c1cccc(OC[C@@H](O)CNC2COC3(CCN(S(=O)(=O)c4cccc(-c5ccc(-c6noc(C)n6)cc5)c4)CC3)C2)c1 (stereo partly drawn) [Compound 380, 3-((2S)-2-hydroxy-3-(8-(4′-(5-methyl-1,2,4-oxadiazol-3-yl)biphenyl-3-ylsulfonyl)-1-oxa-8-azaspiro[4.5]decan-3-ylamino)propoxy)-N-methylbenzenesulfonamide] |
| 24.2 | CN(C)S(=O)(=O)c1cccc(OC[C@@H](O)CNC2COC3(CCN(S(=O)(=O)c4ccc5c(c4)NC(=O)CO5)CC3)C2)c1 (stereo partly drawn) [Compound 250, 3-((2S)-2-hydroxy-3-(8-(3-oxo-3,4-dihydro-2H-benzo[b][1,4]oxazin-6-ylsulfonyl)-1-oxa-8-azaspiro[4.5]decan-3-ylamino)propoxy)-N,N-dimethylbenzenesulfonamide] |
| 6.62 | CNS(=O)(=O)c1cccc(OC[C@@H](O)CN[C@H]2COC3(CCN(S(=O)(=O)c4cnc5[nH]cc(C)c5c4)CC3)C2)c1 [Compound 512, 3-((S)-2-hydroxy-3-((R)-8-(3-methyl-1H-pyrrolo[2,3-b]pyridin-5-ylsulfonyl)-1-oxa-8-azaspiro[4.5]decan-3-ylamino)propoxy)-N-methylbenzenesulfonamide] |
| 32.6 | CNS(=O)(=O)c1cccc(OC[C@@H](O)CNC2COC3(CCN(S(=O)(=O)c4cccc(-c5ccc(CNC(C)C)cc5)c4)CC3)C2)c1 (stereo partly drawn) [Compound 303, 3-((2S)-2-hydroxy-3-(8-(4′-((isopropylamino)methyl)biphenyl-3-ylsulfonyl)-1-oxa-8-azaspiro[4.5]decan-3-ylamino)propoxy)-N-methylbenzenesulfonamide] |
| 1960 | CCn1ccc(=O)c(S(=O)(=O)N2CCC3(CC2)C[C@@H](NC[C@H](O)COc2cccc(S(=O)(=O)NC)c2)CO3)c1 [Compound 588, 3-((S)-3-((R)-8-(1-ethyl-4-oxo-1,4-dihydropyridin-3-ylsulfonyl)-1-oxa-8-azaspiro[4.5]decan-3-ylamino)-2-hydroxypropoxy)-N-methylbenzenesulfonamide] |
| 65.4 | CNS(=O)(=O)c1cccc(OC[C@@H](O)CNC2COC3(CCN(S(=O)(=O)c4cc(C(F)(F)F)ccc4Cl)CC3)C2)c1 (stereo partly drawn) [Compound 133, 3-((2S)-3-(8-(2-chloro-5-(trifluoromethyl)phenylsulfonyl)-1-oxa-8-azaspiro[4.5]decan-3-ylamino)-2-hydroxypropoxy)-N-methylbenzenesulfonamide] |
| 14.1 | CNS(=O)(=O)c1cccc(OC[C@@H](O)CNC2COC3(CCN(S(=O)(=O)c4ccc(Br)cc4)CC3)C2)c1 (stereo partly drawn) [Compound 52, 3-((2S)-3-(8-(4-bromophenylsulfonyl)-1-oxa-8-azaspiro[4.5]decan-3-ylamino)-2-hydroxypropoxy)-N-methylbenzenesulfonamide] |
